Measured values reported in ChEMBL document CHEMBL4507302, “Data for DCP probe TP-020” (2021).

Assays:
[1] = molecular target: AP2-associated protein kinase 1 (Homo sapiens) (UniProt Q2M2I8); conditions: Compound concentration 1000.0 nM
[2] = test system: Tyrosine-protein kinase ABL1 (Homo sapiens), P00519 [F317L]; conditions: Compound concentration 1000.0 nM
[3] = molecular target: Tyrosine-protein kinase ABL1 (Homo sapiens) (UniProt P00519); conditions: Compound concentration 1000.0 nM
[4] = molecular target: ALK tyrosine kinase receptor (Homo sapiens) (UniProt Q9UM73); conditions: Compound concentration 1000.0 nM
[5] = molecular target: Tyrosine-protein kinase Blk (Homo sapiens) (UniProt P51451); conditions: Compound concentration 1000.0 nM
[6] = molecular target: Protein-tyrosine kinase 6 (Homo sapiens) (UniProt Q13882); conditions: Compound concentration 1000.0 nM
[7] = molecular target: Cyclin-dependent kinase-like 3 (Homo sapiens) (UniProt Q8IVW4); conditions: Compound concentration 1000.0 nM
[8] = molecular target: Serine/threonine-protein kinase Chk1 (Homo sapiens) (UniProt O14757); conditions: Compound concentration 1000.0 nM
[9] = molecular target: Casein kinase I isoform alpha (Homo sapiens) (UniProt P48729); conditions: Compound concentration 1000.0 nM
[10] = molecular target: Megakaryocyte-associated tyrosine-protein kinase (Homo sapiens) (UniProt P42679); conditions: Compound concentration 1000.0 nM
[11] = molecular target: Serine/threonine-protein kinase DCLK1 (Homo sapiens) (UniProt O15075); conditions: Compound concentration 1000.0 nM
[12] = molecular target: Discoidin domain-containing receptor 2 (Homo sapiens) (UniProt Q16832); conditions: Compound concentration 1000.0 nM
[13] = molecular target: Serine/threonine-protein kinase 17B (Homo sapiens) (UniProt O94768); conditions: Compound concentration 1000.0 nM
[14] = molecular target: Receptor tyrosine-protein kinase erbB-2 (Homo sapiens) (UniProt P04626); conditions: Compound concentration 1000.0 nM
[15] = molecular target: Tyrosine-protein kinase Fes/Fps (Homo sapiens) (UniProt P07332); conditions: Compound concentration 1000.0 nM
[16] = molecular target: Serine/threonine-protein kinase haspin (Homo sapiens) (UniProt Q8TF76); conditions: Compound concentration 1000.0 nM
[17] = molecular target: Homeodomain-interacting protein kinase 4 (Homo sapiens) (UniProt Q8NE63); conditions: Compound concentration 1000.0 nM
[18] = molecular target: Insulin receptor (Homo sapiens) (UniProt P06213); conditions: Compound concentration 1000.0 nM
[19] = molecular target: Mitogen-activated protein kinase 9 (Homo sapiens) (UniProt P45984); conditions: Compound concentration 1000.0 nM
[20] = molecular target: Mitogen-activated protein kinase kinase kinase 15 (Homo sapiens) (UniProt Q6ZN16); conditions: Compound concentration 1000.0 nM
[21] = molecular target: MAP/microtubule affinity-regulating kinase 4 (Homo sapiens) (UniProt Q96L34); conditions: Compound concentration 1000.0 nM
[22] = molecular target: Dual specificity mitogen-activated protein kinase kinase 6 (Homo sapiens) (UniProt P52564); conditions: Compound concentration 1000.0 nM
[23] = molecular target: Serine/threonine-protein kinase Nek2 (Homo sapiens) (UniProt P51955); conditions: Compound concentration 1000.0 nM
[24] = molecular target: Serine/threonine-protein kinase Nek9 (Homo sapiens) (UniProt Q8TD19); conditions: Compound concentration 1000.0 nM
[25] = molecular target: Mitogen-activated protein kinase 14 (Homo sapiens) (UniProt Q16539); conditions: Compound concentration 1000.0 nM
[26] = molecular target: Serine/threonine-protein kinase PAK 3 (Homo sapiens) (UniProt O75914); conditions: Compound concentration 1000.0 nM
[27] = molecular target: Platelet-derived growth factor receptor alpha (Homo sapiens) (UniProt P16234); conditions: Compound concentration 1000.0 nM
[28] = molecular target: cAMP-dependent protein kinase catalytic subunit beta (Homo sapiens) (UniProt P22694); conditions: Compound concentration 1000.0 nM
[29] = molecular target: Protein kinase C epsilon type (Homo sapiens) (UniProt Q02156); conditions: Compound concentration 1000.0 nM
[30] = molecular target: Protein kinase C theta type (Homo sapiens) (UniProt Q04759); conditions: Compound concentration 1000.0 nM
[31] = test system: Proto-oncogene tyrosine-protein kinase receptor Ret (Homo sapiens), P07949 [M918T]; conditions: Compound concentration 1000.0 nM
[32] = molecular target: Receptor-interacting serine/threonine-protein kinase 1 (Homo sapiens) (UniProt Q13546); conditions: Compound concentration 1000.0 nM
[33] = molecular target: Ribosomal protein S6 kinase alpha-1 (Homo sapiens) (UniProt Q15418); conditions: Compound concentration 1000.0 nM
[34] = molecular target: Serine/threonine-protein kinase SBK1 (Homo sapiens) (UniProt Q52WX2); conditions: Compound concentration 1000.0 nM
[35] = molecular target: Serine/threonine-protein kinase SIK1 (Homo sapiens) (UniProt P57059); conditions: Compound concentration 1000.0 nM
[36] = molecular target: SNF-related serine/threonine-protein kinase (Homo sapiens) (UniProt Q9NRH2); conditions: Compound concentration 1000.0 nM
[37] = molecular target: Serine/threonine-protein kinase TAO3 (Homo sapiens) (UniProt Q9H2K8); conditions: Compound concentration 1000.0 nM
[38] = molecular target: Serine/threonine-protein kinase TBK1 (Homo sapiens) (UniProt Q9UHD2); conditions: Compound concentration 1000.0 nM
[39] = molecular target: Non-receptor tyrosine-protein kinase TNK1 (Homo sapiens) (UniProt Q13470); conditions: Compound concentration 1000.0 nM
[40] = molecular target: High affinity nerve growth factor receptor (Homo sapiens) (UniProt P04629); conditions: Compound concentration 1000.0 nM
[41] = molecular target: Dual specificity protein kinase TTK (Homo sapiens) (UniProt P33981); conditions: Compound concentration 1000.0 nM
[42] = molecular target: Wee1-like protein kinase 2 (Homo sapiens) (UniProt P0C1S8); conditions: Compound concentration 1000.0 nM
[43] = molecular target: Serine/threonine-protein kinase WNK3 (Homo sapiens) (UniProt Q9BYP7); conditions: Compound concentration 1000.0 nM
[44] = molecular target: Kappa-type opioid receptor (Homo sapiens) (UniProt P41145); conditions: Compound concentration 10.0 uM
[45] = molecular target: Histamine H1 receptor (Homo sapiens) (UniProt P35367); conditions: Compound concentration 10.0 uM
[46] = molecular target: Alpha-2B adrenergic receptor (Homo sapiens) (UniProt P18089); conditions: Compound concentration 10.0 uM
Sequence of Alpha-2B adrenergic receptor (Homo sapiens) (P18089 whole entry): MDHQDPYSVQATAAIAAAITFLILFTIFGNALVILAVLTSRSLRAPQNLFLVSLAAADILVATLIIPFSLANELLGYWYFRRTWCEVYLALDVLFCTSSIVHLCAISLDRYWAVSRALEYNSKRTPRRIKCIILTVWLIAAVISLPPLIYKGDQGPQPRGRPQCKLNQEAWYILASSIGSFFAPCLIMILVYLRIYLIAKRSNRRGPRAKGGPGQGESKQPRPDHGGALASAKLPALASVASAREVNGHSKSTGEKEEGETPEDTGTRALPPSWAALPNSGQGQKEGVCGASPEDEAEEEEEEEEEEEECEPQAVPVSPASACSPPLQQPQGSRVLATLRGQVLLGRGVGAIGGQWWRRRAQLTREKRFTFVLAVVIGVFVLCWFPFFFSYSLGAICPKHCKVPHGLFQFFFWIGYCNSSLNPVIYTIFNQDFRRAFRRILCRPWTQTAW

Sequence of Serine/threonine-protein kinase TAO3 (Homo sapiens) (Q9H2K8 whole entry): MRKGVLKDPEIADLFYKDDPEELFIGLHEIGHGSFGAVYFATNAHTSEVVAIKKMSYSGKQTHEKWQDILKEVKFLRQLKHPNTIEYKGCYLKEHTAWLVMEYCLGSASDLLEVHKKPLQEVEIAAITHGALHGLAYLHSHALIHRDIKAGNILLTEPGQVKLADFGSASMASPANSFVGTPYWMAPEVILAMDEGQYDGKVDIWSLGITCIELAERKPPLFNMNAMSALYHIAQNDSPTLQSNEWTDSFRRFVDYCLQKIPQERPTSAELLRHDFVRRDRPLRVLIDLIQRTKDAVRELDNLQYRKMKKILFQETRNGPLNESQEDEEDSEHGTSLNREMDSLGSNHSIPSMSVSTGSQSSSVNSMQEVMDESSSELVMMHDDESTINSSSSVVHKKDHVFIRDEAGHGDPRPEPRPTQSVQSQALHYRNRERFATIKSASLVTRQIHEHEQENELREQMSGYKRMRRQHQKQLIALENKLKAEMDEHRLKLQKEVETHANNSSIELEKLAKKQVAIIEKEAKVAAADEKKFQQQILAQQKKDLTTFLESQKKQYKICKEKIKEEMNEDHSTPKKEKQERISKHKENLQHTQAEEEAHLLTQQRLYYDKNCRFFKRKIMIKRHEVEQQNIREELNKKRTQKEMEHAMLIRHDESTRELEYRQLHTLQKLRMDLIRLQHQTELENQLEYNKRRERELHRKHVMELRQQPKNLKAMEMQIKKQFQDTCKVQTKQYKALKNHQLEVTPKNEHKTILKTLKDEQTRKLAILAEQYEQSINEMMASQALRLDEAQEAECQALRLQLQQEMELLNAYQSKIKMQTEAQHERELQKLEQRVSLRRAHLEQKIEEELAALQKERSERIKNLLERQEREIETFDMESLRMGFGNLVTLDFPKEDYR
Sequence of Serine/threonine-protein kinase DCLK1 (Homo sapiens) (O15075 whole entry, the tested form may be a part): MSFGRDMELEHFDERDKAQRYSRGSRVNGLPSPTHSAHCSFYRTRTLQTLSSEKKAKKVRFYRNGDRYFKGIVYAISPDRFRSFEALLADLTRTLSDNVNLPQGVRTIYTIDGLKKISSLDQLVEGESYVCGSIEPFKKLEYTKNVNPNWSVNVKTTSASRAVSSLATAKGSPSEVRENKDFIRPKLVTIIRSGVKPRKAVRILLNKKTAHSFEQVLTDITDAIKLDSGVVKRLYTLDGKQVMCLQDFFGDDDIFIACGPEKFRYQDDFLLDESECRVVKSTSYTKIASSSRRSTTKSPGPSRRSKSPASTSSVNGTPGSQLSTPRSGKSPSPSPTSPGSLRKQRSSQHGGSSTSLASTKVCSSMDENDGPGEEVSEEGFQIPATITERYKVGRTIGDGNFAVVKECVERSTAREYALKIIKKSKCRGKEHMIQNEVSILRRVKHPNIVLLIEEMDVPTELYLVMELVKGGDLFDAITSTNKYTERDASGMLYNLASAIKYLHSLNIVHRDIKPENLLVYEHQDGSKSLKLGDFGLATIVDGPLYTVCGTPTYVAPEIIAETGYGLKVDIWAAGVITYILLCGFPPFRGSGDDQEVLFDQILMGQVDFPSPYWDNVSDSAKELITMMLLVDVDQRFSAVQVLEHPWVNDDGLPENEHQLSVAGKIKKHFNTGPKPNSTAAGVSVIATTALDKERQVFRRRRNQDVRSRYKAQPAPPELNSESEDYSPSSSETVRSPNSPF
Sequence of Proto-oncogene tyrosine-protein kinase receptor Ret (Homo sapiens), P07949 [M918T] (P07949 whole entry M918T): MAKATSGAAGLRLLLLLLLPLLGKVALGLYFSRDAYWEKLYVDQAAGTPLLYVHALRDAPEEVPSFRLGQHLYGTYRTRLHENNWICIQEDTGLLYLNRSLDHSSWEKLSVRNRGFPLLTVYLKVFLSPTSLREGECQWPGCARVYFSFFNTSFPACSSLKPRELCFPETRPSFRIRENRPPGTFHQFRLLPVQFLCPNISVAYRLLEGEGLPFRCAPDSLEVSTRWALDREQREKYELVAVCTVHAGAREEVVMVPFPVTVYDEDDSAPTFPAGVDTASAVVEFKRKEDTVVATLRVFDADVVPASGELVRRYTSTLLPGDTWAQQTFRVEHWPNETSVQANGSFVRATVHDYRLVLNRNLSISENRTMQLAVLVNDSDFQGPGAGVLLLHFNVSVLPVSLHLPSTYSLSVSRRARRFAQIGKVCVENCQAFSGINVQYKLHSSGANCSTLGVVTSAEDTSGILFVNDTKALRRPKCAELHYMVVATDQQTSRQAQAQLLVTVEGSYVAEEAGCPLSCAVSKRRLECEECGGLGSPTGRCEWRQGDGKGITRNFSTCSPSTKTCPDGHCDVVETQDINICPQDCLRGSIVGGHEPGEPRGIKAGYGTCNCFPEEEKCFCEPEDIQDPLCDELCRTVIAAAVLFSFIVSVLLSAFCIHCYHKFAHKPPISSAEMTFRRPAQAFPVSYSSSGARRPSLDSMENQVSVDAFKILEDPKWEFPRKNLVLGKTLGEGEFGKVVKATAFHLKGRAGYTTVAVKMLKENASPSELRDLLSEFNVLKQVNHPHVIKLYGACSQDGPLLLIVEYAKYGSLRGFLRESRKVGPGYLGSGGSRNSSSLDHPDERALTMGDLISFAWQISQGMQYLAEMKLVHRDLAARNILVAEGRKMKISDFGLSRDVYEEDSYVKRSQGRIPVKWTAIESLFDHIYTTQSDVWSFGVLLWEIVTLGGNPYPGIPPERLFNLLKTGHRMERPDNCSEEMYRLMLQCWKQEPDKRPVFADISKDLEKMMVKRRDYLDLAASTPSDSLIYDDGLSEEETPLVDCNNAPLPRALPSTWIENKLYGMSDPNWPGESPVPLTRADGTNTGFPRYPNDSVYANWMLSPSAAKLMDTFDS
Sequence of Serine/threonine-protein kinase Nek9 (Homo sapiens) (Q8TD19 whole entry): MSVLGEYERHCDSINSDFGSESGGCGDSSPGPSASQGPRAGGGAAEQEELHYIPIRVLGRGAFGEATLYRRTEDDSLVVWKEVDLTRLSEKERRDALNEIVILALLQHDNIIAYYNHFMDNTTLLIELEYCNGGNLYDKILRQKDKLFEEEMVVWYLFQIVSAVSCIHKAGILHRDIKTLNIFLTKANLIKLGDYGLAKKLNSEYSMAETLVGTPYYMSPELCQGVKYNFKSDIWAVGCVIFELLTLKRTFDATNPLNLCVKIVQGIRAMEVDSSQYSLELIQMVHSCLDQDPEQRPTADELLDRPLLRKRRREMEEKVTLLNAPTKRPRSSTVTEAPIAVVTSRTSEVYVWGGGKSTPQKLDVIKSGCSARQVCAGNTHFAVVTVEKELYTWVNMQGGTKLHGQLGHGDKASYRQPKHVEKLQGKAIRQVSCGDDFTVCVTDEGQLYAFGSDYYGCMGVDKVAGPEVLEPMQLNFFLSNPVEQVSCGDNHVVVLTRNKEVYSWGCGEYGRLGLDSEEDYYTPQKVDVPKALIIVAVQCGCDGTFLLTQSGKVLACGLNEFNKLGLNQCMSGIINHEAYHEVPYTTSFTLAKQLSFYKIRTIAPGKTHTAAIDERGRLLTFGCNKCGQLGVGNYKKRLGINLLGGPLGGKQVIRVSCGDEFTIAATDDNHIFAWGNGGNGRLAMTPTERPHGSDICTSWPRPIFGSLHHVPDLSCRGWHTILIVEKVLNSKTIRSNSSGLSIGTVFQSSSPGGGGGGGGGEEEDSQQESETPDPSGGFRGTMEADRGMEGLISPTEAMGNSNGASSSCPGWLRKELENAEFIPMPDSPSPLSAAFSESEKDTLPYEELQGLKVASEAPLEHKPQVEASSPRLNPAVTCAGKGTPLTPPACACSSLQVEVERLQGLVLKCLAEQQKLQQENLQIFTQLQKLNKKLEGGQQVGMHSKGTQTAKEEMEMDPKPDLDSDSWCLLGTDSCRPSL
Sequence of Homeodomain-interacting protein kinase 4 (Homo sapiens) (Q8NE63 whole entry): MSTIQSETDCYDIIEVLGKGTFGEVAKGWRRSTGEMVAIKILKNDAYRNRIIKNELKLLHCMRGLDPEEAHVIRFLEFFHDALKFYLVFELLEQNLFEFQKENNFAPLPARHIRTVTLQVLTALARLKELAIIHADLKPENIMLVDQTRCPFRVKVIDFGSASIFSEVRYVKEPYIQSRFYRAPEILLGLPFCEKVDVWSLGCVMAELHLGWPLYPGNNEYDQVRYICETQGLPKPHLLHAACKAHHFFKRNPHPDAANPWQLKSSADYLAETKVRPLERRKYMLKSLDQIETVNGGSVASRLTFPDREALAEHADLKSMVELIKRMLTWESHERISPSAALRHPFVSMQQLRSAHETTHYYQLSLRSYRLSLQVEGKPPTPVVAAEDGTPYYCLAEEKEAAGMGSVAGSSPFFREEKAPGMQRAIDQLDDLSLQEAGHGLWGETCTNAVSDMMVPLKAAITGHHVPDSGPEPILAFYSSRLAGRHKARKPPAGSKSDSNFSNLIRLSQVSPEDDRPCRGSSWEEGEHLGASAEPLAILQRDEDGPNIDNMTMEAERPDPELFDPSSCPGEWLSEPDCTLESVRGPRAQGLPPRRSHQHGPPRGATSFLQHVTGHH

Cn1nc(C(F)(F)F)cc1-c1cnc(N2CCc3cc(S(=O)(=O)Nc4c(F)cc(Cl)cc4F)cc(N4CCCC4=O)c32)nc1 [TP-020]
inactive: residual activity [1] 100% | residual activity [2] 60% | residual activity [3] 73% | residual activity [4] 80% | residual activity [5] 100% | residual activity [6] 90% | residual activity [7] 100% | residual activity [8] 100% | residual activity [9] 86% | residual activity [10] 91% | residual activity [11] 93% | residual activity [12] 80% | residual activity [13] 100% | residual activity [14] 79% | residual activity [15] 100% | residual activity [16] 68% | residual activity [17] 100% | residual activity [18] 89% | residual activity [19] 95% | residual activity [20] 81% | residual activity [21] 88% | residual activity [22] 100% | residual activity [23] 100% | residual activity [24] 100% | residual activity [25] 100% | residual activity [26] 77% | residual activity [27] 88% | residual activity [28] 81% | residual activity [29] 96% | residual activity [30] 100% | residual activity [31] 100% | residual activity [32] 100% | residual activity [33] 96% | residual activity [34] 92% | residual activity [35] 100% | residual activity [36] 87% | residual activity [37] 93% | residual activity [38] 95% | residual activity [39] 100% | residual activity [40] 69% | residual activity [41] 97% | residual activity [42] 100% | residual activity [43] 97% | inhibition [44] 14.6% | inhibition [45] 10.2% | inhibition [46] 18.5%

Nc1cnc(N2CCc3cc(S(=O)(=O)Nc4c(F)cc(Cl)cc4F)cc(N4CCCC4=O)c32)nc1
inactive: residual activity [1] 100% | residual activity [2] 99% | residual activity [3] 100% | residual activity [4] 100% | residual activity [5] 100% | residual activity [6] 100% | residual activity [7] 100% | residual activity [8] 95% | residual activity [9] 100% | residual activity [10] 100% | residual activity [11] 100% | residual activity [12] 100% | residual activity [13] 100% | residual activity [14] 100% | residual activity [15] 100% | residual activity [16] 100% | residual activity [17] 100% | residual activity [18] 89% | residual activity [19] 84% | residual activity [20] 100% | residual activity [21] 79% | residual activity [22] 71% | residual activity [23] 89% | residual activity [24] 98% | residual activity [25] 100% | residual activity [26] 100% | residual activity [27] 89% | residual activity [28] 100% | residual activity [29] 100% | residual activity [30] 89% | residual activity [31] 100% | residual activity [32] 92% | residual activity [33] 100% | residual activity [34] 83% | residual activity [35] 100% | residual activity [36] 100% | residual activity [37] 70% | residual activity [38] 85% | residual activity [39] 100% | residual activity [40] 100% | residual activity [41] 90% | residual activity [42] 93% | residual activity [43] 100% | inhibition [44] 14.9% | inhibition [45] -2.69% | inhibition [46] 0.99%
